# Results reported in patent US10813905B2, “Methods of treating sickle cell disease and related disorders using fumaric acid esters” (Augusta University Research Institute, Inc., priority 2012, dated 2020).
# Where a name gives a salt, the structure may show the parent alone.
# Legend:
# [1] = single doses, healthy adults, cited from earlier work
# [2] = tested on: γ-globin promoter; experiment: KU812 dual-luciferase reporter assay of γ-globin promoter activity; format: cell-based, human; conditions: for concentration of maximal induction of γ-globin promoter activity: 0-1000 μM, 48 h
# Description: (§1) KU812 stable cell lines were created by co-transfecting wild-type KU812 cells with pEGFP-NI (G418 selectable marker) and the μLCRβprRluc AγprFluc dual reporter a kind gifts from Dr. George Stamatoyannopoulos (University of Washington). Briefly, the 315-bp human β-globin gene promoter sequence was inserted upstream of the Renilla along with a polyadenylation signal downstream to create PβprRluc. Likewise, 1.4 kb of human aγ-globin promoter was inserted upstream of firefly luciferase to create AγprFluc. The μLCR (locus control region), PβprRluc, and AγprFluc fragments were subsequently cloned into the mammalian vector, pRL-null. The dual-luciferase reporter lines were produced using 10 μg each of linearized μLCRβprRluc AγprFluc and pEGFP-NI plasmids co-transfected into KU812 cells by electroporation at 260 V, 975 μF (Bio-Rad, Hercules Calif.). After 72 hr, G418 was added at a concentration of 900 μg/μl for 3 days then maintained under selection pressure indefinitely at a concentration of 400 μg/μl. […] FK228 and analogues were screened at concentrations between 1-1000 nM for 48 hr and cell toxicity was monitored by 2% Trypan blue exclusion. The effect of drug treatments on γ-globin and β-globin promoter activity was monitored by luciferase assay.
# Luciferase activity was monitored under the different experimental conditions using the Dual Luciferase Assay Reporter System (Promega, Madison, Wis.). The activity of firefly luciferase represents γ-globin promoter activity (γF), while the renilla luciferase is the read-out for β-globin promoter activity (βR). […] After drug treatments, KU812 stable cells were washed with 1× phosphate buffered saline and lysed in 1× Passive Lysis Buffer for 15 min, then protein extracts were added to the Luciferase Assay Reagent II and firefly luciferase activity quantified in a Turner Designs TD-20/20 luminometer (Sunnyvale, Calif.). […] Total protein was determined by Bradford assay on a Beckman DU 640 spectrophotometer (Chaska, Minn.) and luciferase activity was corrected for total protein. […]
# [3] = tested on: small intestinal cell model; conditions: cited from earlier work
# [4] = tested on: HbF in primary human erythroid cells; experiment: FACS of HbF positive cells in primary human erythroid progenitors; format: cell-based; conditions: DMF 200 μM, MMF 1000 μM, HU 100 μM
# Procedure: HU (100 μM; Sigma) was included as a positive control and cell viability was monitored by trypan blue exclusion. Findings in KU812 cells were confirmed in human primary erythroid progenitor cells grown in liquid culture using a published protocol. Globin expression was measured by qPCR also as previously published. HbF protein was measured relative to that of isotype control using FITC conjugated anti-human HbF antibody (1:1000; Santa Cruz Biotechnology, Santa Cruz, Calif.) and fluorescence activated cell sorting (see supplemental methods for details). HbF protein expression was confirmed by Western blot analysis using anti-human HbF antibody (1:1000; Bethyl Laboratories, Inc., Montgomery, Tex.) and horseradish peroxidase-conjugated sheep IgG (1:1000; Santa Cruz).
# Erythroid progenitors were generated in vitro from adult CD34^+ stem cells ([…] technologies, Inc. Vancouver, Canada) using a 2-stage culture system that achieves terminal erythroid differentiation18. CD34^+ stem cells (500,000) were grown in First medium consisting of Iscove Modified Dulbecco Media containing human AB serum, interleukin-3 (10 ng/mL), stem cell factor (10 ng/mL) and erythropoietin (2 IU/mL). On day 7, the erythroblasts were placed in Second medium with 2 IU/mL erythropoietin for the duration. […] Then cells were harvested for total RNA and protein for qPCR, FACS and western blot analyses.
# After drug treatments, 500,000 cells were washed twice with phosphate buffered saline and then fixed in 4% paraformaldehyde and permeated with ice-cold acetone/methanol (4:1). Cells were incubated with anti-γ-globin-FITC antibody (Santa Cruz Biotechnology, Santa Cruz, Calif.) in PBT (PBS/01% BSA/0.1% triton X100) solution for 20 min to stain intracellular HbF antigens. The labeled cells were analyzed by Bectin Dickerson LSR-II flow cytometer (BD Bioscience). All experiments were performed in triplicate.
# [5] = tested on: KU812 cells; format: cell-based; conditions: human, 48 h
# Description: as §1, with “pRL-null.” for “pRL-null. The dual-luciferase reporter lines were produced using 10 μg each of linearized μLCRβprRluc AγprFluc and pEGFP-NI plasmids co-transfected into KU812 cells by electroporation at 260 V, 975 μF (Bio-Rad, Hercules Calif.). After 72 hr, G418 was added at a concentration of 900 μg/μl for 3 days then maintained under selection pressure indefinitely at a concentration of 400 μg/μl.”
# Luciferase activity, an indicator of γ-globin promoter induction, was monitored KU812 μLCRβprRlucγprFluc—stable cells cultured in the presence of absence (untreated control, UT) of MMF at varying dosages for 48 hour according to the method discussed above and in MaKala et al., Anemia, Volume 2012, Article ID 428137) (2012).
# HU (100 μM; Sigma) was included as a positive control and cell viability was monitored by trypan blue exclusion. […] Globin expression was measured by qPCR also as previously published. […]
# [6] = tested on: γ-globin gene expression in KU812 cells; experiment: γ-globin gene expression by qPCR in KU812 cells; format: cell-based, human; conditions: 100 μM, depending upon the incubation time (3-24 h)
# Procedure: KU812 cells were cultured in the presence or absence of MMF for time periods ranging from 0-24 hours and evaluated for changes in γ-globin gene expression relative to 18S ribosomal RNA expression (internal experimental control) by qPCR (FIG. 1). In comparison to control, untreated (UT) cells, significant increases in γ-globin gene expression were observed as early as 3 hours post-incubation with low-does (100 μM) MMF treatment. This MMF-induced increase in γ-globin expression persisted up to 24 h post-exposure to the compound. Data in FIG. 1 are represented as means±standard error of the mean (SEM); *P<0.05, **P<0.01 and ***P<0.001.
# FIG. 2 is reproduced from MaKala et al., Anemia, Volume 2012, Article ID 428137) (2012). […] At 100 μM, the same concentration that we used for MMF, HU induces γ-globin gene expression ˜2-fold.
# [7] = tested on: γ/β-globin mRNA in primary human erythroid cells; experiment: γ/β-globin mRNA by qPCR in primary human erythroid progenitors; format: cell-based; conditions: DMF 200 μM, MMF 1000 μM
# Procedure: HU (100 μM; Sigma) was included as a positive control and cell viability was monitored by trypan blue exclusion. Findings in KU812 cells were confirmed in human primary erythroid progenitor cells grown in liquid culture using a published protocol. Globin expression was measured by qPCR also as previously published. HbF protein was measured relative to that of isotype control using FITC conjugated anti-human HbF antibody (1:1000; Santa Cruz Biotechnology, Santa Cruz, Calif.) and fluorescence activated cell sorting (see supplemental methods for details). HbF protein expression was confirmed by Western blot analysis using anti-human HbF antibody (1:1000; Bethyl Laboratories, Inc., Montgomery, Tex.) and horseradish peroxidase-conjugated sheep IgG (1:1000; Santa Cruz). Erythroid progenitors were generated in vitro from adult CD34^+ stem cells ([…] technologies, Inc. Vancouver, Canada) using a 2-stage culture system that achieves terminal erythroid differentiation18. CD34^+ stem cells (500,000) were grown in First medium consisting of Iscove Modified Dulbecco Media containing human AB serum, interleukin-3 (10 ng/mL), stem cell factor (10 ng/mL) and erythropoietin (2 IU/mL). On day 7, the erythroblasts were placed in Second medium with 2 IU/mL erythropoietin for the duration. […] Then cells were harvested for total RNA and protein for qPCR, FACS and western blot analyses.
# [8] = tested on: OCTN1; experiment: OCTN1 mRNA expression in ARPE-19 cells; format: cell-based, human; conditions: RPE (ARPE-19) cells; MMF 1000 μM, HU 100 μM
# Description: Red blood cells, cells of erythroid lineage, are the primary producers of hemoglobin. […] The includes retinal pigment epithelial (RPE) cells, a cell type critical to normal visual function. […] Data are represented as mean±SEM; *p<0.05.
# [9] = tested on: γ-globin gene expression in primary RPE cells; experiment: γ-globin/HbF expression in primary RPE cells from humanized mice; format: cell-based, mouse; conditions: ARPE-19 and primary RPE cells (FIGS. 8B, 8D, 8E, 11)
# Procedure: The effect of MMF on primary RPE cells was also investigated. RPE cells were isolated from the eyes of humanized mice and used to establish primary RPE cell cultures. […] Primary RPE cells were cultured in the presence or absence of MMF at concentrations ranging from 0-1000 μM for a period of 9 hours. Total RNA was prepared and γ-globin gene expression analyzed by qPCR. […] Data are represented as mean±SEM; *P<0.01, **P<0.001.
# Identical experiments were performed using the human RPE cell line ARPE-19, an established model for the study of RPE19, and primary RPE cell cultures established from the eyes of HbAA- and HbSS-expressing Townes humanized knock-in SCD mice (Jackson Laboratories, Bar Harbor, Me.) per our published method. Additionally, MMF (1 mM final concentration) or PBS (control) was injected intravitreally into the eyes of HbAA and HbSS mice and retinal γ-globin and HbF expression analyzed by qPCR and immunofluorescence 24 h post-injection. Animal studies were approved by the Georgia Regents University Institutional Committee for Animal Use in Research and Education.
# HbF protein production in ARPE-19 cells exposed to MMF (1000 μM) for 24 h was evaluated using a FITC-conjugated HbF antibody and fluorescence microscopy (data not shown). Cell nuclei were counterstained with DAPI. […]
smiles,measurement,setting,value
CCN(CC)C(=O)COC(=O)/C=C/C(=O)OC [XP23829],tolerability,[1]; four oral formulations,generally well-tolerated
same,levels of MMF in the blood,[1],expected levels of MMF in the blood
"COC(=O)/C=C/C(=O)OC [DMF, dimethyl fumarate]",concentration of maximal induction of γ-globin promoter activity,[2],200 µM
same,effectiveness as inducer of γ-globin promoter activity at higher concentrations,[2]; concentrations higher than 100-200 μM,declined substantially
same,permeability,[3]; in vitro small intestinal cell model,high permeability
same,metabolism in the intestinal tissue,[3]; intestinal tissue,complete metabolism
same,increase in HbF positive cells (FACS),[4],28 fold
"COC(=O)/C=C/C(=O)O [MMF, monomethyl fumarate]",Cell viability by Trypan blue exclusion,[5],90-95%
same,concentration of maximal induction of γ-globin promoter activity,[2],1000 µM
same,"γ-globin gene expression, fold increase vs untreated",[6],2-4 fold
same,increase in HbF positive cells (FACS),[4],32 fold
same,γ/β-globin mRNA induction,[7],8 fold
"NC(=O)NO [HU, hydroxyurea]",OCTN1 expression,[8],little to no effect
same,increase in HbF positive cells (FACS),[4],15 fold
same,γ-globin expression and HbF production in RPE cells,[9],induction of γ-globin expression and HbF production
